From ChEMBL document CHEMBL1201862, “PubChem BioAssay data set” (2004) come the findings set out here.

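Interpolation was linear, between the two tested concentrations surrounding the appropriate level; five concentrations were tested over 48 hours in 96-well plates. GI50 = concentration required for 50% inhibition of growth.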 Calls of active or inactive are those of the source. Rule as the data show it: active = GI50 up to about 1.1 µM and inactive = higher.

Some test systems named below: COLO 205; U-251; MDA-MB-435; Malme-3M; HT-29; SK-MEL-5; M14; HCT-116; SF-295; HOP-62; NCI-H23; UACC-257; SK-OV-3; HOP-92; DU-145; A498; EKVX; IGROV-1; SK-MEL-2; SR.
What all share (test): inhibition of tumour cell growth, NCI panel, 48 h

For `C[C@@H]1OC(=O)C[C@H]2CC(=O)N(CCC3CN(S(=O)(=O)C(F)(F)F)c4ccccc43)C[C@@H]21` (stereo not given in full), the GI50 was > 100 µM (inactive) in the experiment on COLO 205; > 100 µM (inactive) in the experiment with U-251; > 100 µM (inactive) in the experiment on MDA-MB-435; 82.4 µM (inactive) with Malme-3M; > 100 µM (inactive) in the experiment with HT-29; > 100 µM (inactive) in the experiment with SK-MEL-5. Besides, the GI50 in the experiment with M14, with HCT-116, with SF-295, in the experiment on HOP-62, in the experiment on NCI-H23 and with UACC-257 was > 100 µM (inactive) in each case. Also, the GI50 in the experiment on SK-OV-3 is > 100 µM (inactive); with HOP-92, > 100 µM (inactive); in the experiment with DU-145 it was > 100 µM (inactive); with A498, > 100 µM (inactive); in the experiment with EKVX, > 100 µM (inactive); in the experiment with IGROV-1, 69.7 µM (inactive). Moreover, the GI50 in the experiment with SK-MEL-2 and in the experiment on SR was > 100 µM (inactive) throughout.

Consider `O=C1/C(=C/c2ccc(F)cc2)CNC/C1=C\c1ccc(F)cc1`, for which the GI50 in the experiment on COLO 205 is 1.44 µM (inactive); in the experiment with U-251 it was 0.41 µM (active); in the experiment with MDA-MB-435, 2.49 µM (inactive); in the experiment with Malme-3M, 3.28 µM (inactive); in the experiment on HT-29 it was 0.664 µM (active); with SK-MEL-5, 1.42 µM (inactive). Moreover, the GI50 in the experiment on M14 is 1.99 µM (inactive); in the experiment on HCT-116, 0.27 µM (active); in the experiment on SF-295 it was 2.09 µM (inactive); in the experiment with HOP-62 it was 1.78 µM (inactive); with NCI-H23, 1.5 µM (inactive); with UACC-257 it was 3.76 µM (inactive). Further, the GI50 in the experiment with SK-OV-3 was 6.92 µM (inactive); in the experiment on HOP-92, 3.61 µM (inactive); with DU-145, 1.75 µM (inactive); in the experiment with A498 it was 2.25 µM (inactive); in the experiment with EKVX it was 1.94 µM (inactive); in the experiment with IGROV-1 it was 0.667 µM (active). Besides, the GI50 with SK-MEL-2 is 12 µM (inactive); in the experiment with SR, 0.305 µM (active).

For `CCOP1(=O)CC(C)=C(Cl)C(OC)C1` (stereo not given), the GI50 in the experiment with COLO 205, in the experiment with U-251, in the experiment with MDA-MB-435, in the experiment with Malme-3M, in the experiment with HT-29 and in the experiment on SK-MEL-5 was > 100 µM (inactive) each time. Besides, the GI50 in the experiment on M14, in the experiment on HCT-116, in the experiment on SF-295, in the experiment on HOP-62, in the experiment with NCI-H23 and in the experiment on UACC-257 was > 100 µM (inactive) each time. The GI50 in the experiment with SK-OV-3, with HOP-92, in the experiment on DU-145, in the experiment on A498, with EKVX and with IGROV-1 was > 100 µM (inactive) throughout. Besides, the GI50 in the experiment with SK-MEL-2 and in the experiment with SR was > 100 µM (inactive) each time.

Consider `NCC(O)CSP(=O)(O)O` (stereo not given), for which the GI50 in the experiment with COLO 205, in the experiment with U-251, in the experiment with MDA-MB-435, in the experiment on Malme-3M, in the experiment on HT-29 and in the experiment on SK-MEL-5 was > 100 µM (inactive) throughout. Besides, the GI50 in the experiment with M14, with HCT-116, in the experiment on SF-295, with HOP-62, with NCI-H23 and in the experiment on UACC-257 was > 100 µM (inactive) throughout. Also, the GI50 in the experiment on SK-OV-3, with HOP-92, in the experiment with DU-145, with A498, in the experiment with EKVX and in the experiment on IGROV-1 was > 100 µM (inactive) throughout. The GI50 with SK-MEL-2 and in the experiment with SR was > 100 µM (inactive) in each case.

Regarding `O=C1c2ccccc2C(=O)c2nn(N=P(CP(=Nn3nc4c(n3)C(=O)c3ccccc3C4=O)(c3ccccc3)c3ccccc3)(c3ccccc3)c3ccccc3)nc21`, the GI50 in the experiment on COLO 205, in the experiment on U-251, in the experiment with MDA-MB-435, in the experiment with Malme-3M, with HT-29 and in the experiment with SK-MEL-5 was > 100 µM (inactive) throughout. The GI50 with M14, in the experiment with HCT-116, with SF-295, in the experiment on HOP-62, with NCI-H23 and in the experiment with UACC-257 was > 100 µM (inactive) each time. Moreover, the GI50 is > 100 µM (inactive) in the experiment on SK-OV-3; 96.8 µM (inactive) in the experiment with HOP-92; > 100 µM (inactive) in the experiment with DU-145; > 100 µM (inactive) in the experiment on A498; > 100 µM (inactive) in the experiment on EKVX; > 100 µM (inactive) in the experiment with IGROV-1. Moreover, the GI50 in the experiment with SK-MEL-2 and with SR was > 100 µM (inactive) each time.

Regarding `[O-][n+]1c(CN2CCCCC2)nc2cccc3c2c1-c1ccccc1-3`, the GI50 in the experiment with COLO 205 is 16.9 µM (inactive); with U-251, 29.4 µM (inactive); with MDA-MB-435, 32.1 µM (inactive); in the experiment with Malme-3M, 14.3 µM (inactive); with HT-29, 17.3 µM (inactive); in the experiment on SK-MEL-5, 16.1 µM (inactive). Besides, the GI50 in the experiment with M14 was 15.9 µM (inactive); in the experiment on HCT-116, 12.8 µM (inactive); in the experiment on SF-295, 28.7 µM (inactive); in the experiment on HOP-62 it was 19.6 µM (inactive); in the experiment with NCI-H23, 20.3 µM (inactive); in the experiment with UACC-257, 18.4 µM (inactive). Besides, the GI50 in the experiment with SK-OV-3 was 26.1 µM (inactive); in the experiment with HOP-92, 25.1 µM (inactive); in the experiment with DU-145, 17.9 µM (inactive); in the experiment with A498, 18.2 µM (inactive); in the experiment with EKVX, 18.4 µM (inactive); in the experiment on IGROV-1, 23.5 µM (inactive). The GI50 with SK-MEL-2 is 23 µM (inactive); in the experiment on SR, 43.5 µM (inactive).

For the molecule `Nc1n[nH]c2nc3ccc(C(F)(F)F)cc3nc12`, the GI50 is 16 µM (inactive) with COLO 205; 39.5 µM (inactive) with U-251; 64.9 µM (inactive) in the experiment with MDA-MB-435; 71.6 µM (inactive) in the experiment on Malme-3M; 29.8 µM (inactive) in the experiment on HT-29; 48.9 µM (inactive) with SK-MEL-5. Further, the GI50 in the experiment with M14 was 33.3 µM (inactive); with HCT-116, 24.7 µM (inactive); in the experiment on SF-295, 24.5 µM (inactive); in the experiment with HOP-62, 18.5 µM (inactive); in the experiment on NCI-H23, 22.2 µM (inactive); in the experiment on UACC-257, 21.8 µM (inactive). Further, the GI50 was 20.5 µM (inactive) with SK-OV-3; 25.1 µM (inactive) in the experiment with HOP-92; 16.7 µM (inactive) with DU-145; 33 µM (inactive) in the experiment on A498; 7.87 µM (inactive) in the experiment with EKVX; 21.9 µM (inactive) in the experiment on IGROV-1. Further, the GI50 in the experiment on SK-MEL-2 is 23.3 µM (inactive); in the experiment on SR, 49.4 µM (inactive).

On to `CCOC(=O)c1cnc(N(C)C)nc1SC(=N)N`, for which the GI50 in the experiment with COLO 205, with U-251, with MDA-MB-435, with Malme-3M, in the experiment with HT-29 and in the experiment on SK-MEL-5 was > 100 µM (inactive) in each case. For the same molecule, the GI50 in the experiment on M14, in the experiment with HCT-116, with SF-295, with HOP-62, in the experiment with NCI-H23 and in the experiment on UACC-257 was > 100 µM (inactive) each time. For the same molecule, the GI50 in the experiment on SK-OV-3, in the experiment on HOP-92, in the experiment on DU-145, in the experiment with A498, in the experiment with EKVX and with IGROV-1 was > 100 µM (inactive) throughout. Moreover, the GI50 is > 100 µM (inactive) with SK-MEL-2 and 35.6 µM (inactive) in the experiment with SR.

As to `O=[N+]([O-])c1ccc(S(=O)(=O)Cc2ccccc2)c2nonc12`, the GI50 is 16.4 µM (inactive) in the experiment with COLO 205; 18.2 µM (inactive) with U-251; 19.2 µM (inactive) in the experiment with MDA-MB-435; 17.9 µM (inactive) with Malme-3M; 18.7 µM (inactive) in the experiment with HT-29; 18.5 µM (inactive) in the experiment on SK-MEL-5. Besides, the GI50 in the experiment with M14 was 16.4 µM (inactive); with HCT-116, 17.3 µM (inactive); in the experiment on SF-295, > 100 µM (inactive); in the experiment with HOP-62 it was 22.7 µM (inactive); with NCI-H23 it was 19.1 µM (inactive); with UACC-257 it was 16.1 µM (inactive). Besides, the GI50 is > 100 µM (inactive) in the experiment with SK-OV-3; 19.9 µM (inactive) in the experiment with HOP-92; 18.7 µM (inactive) in the experiment on DU-145; > 100 µM (inactive) in the experiment with A498; 21.1 µM (inactive) with EKVX; 18.8 µM (inactive) in the experiment on IGROV-1. Moreover, the GI50 in the experiment with SK-MEL-2 is 19.3 µM (inactive); with SR it was 24.2 µM (inactive).

Turning to `COc1ccc2oc(S(=O)(=O)N3CC(CCl)c4ccc(N)cc43)cc2c1` (stereo not given), the GI50 in the experiment on COLO 205 is 2.11 µM (inactive); in the experiment with U-251 it was 0.0429 µM (active); in the experiment on MDA-MB-435 it was 0.0113 µM (active); in the experiment on Malme-3M it was 0.043 µM (active); in the experiment on HT-29 it was 2.25 µM (inactive); with SK-MEL-5, 0.019 µM (active). In addition, the GI50 with M14 is 0.0393 µM (active); with HCT-116, 0.0419 µM (active); with SF-295, 0.042 µM (active); with HOP-62, 0.565 µM (active); in the experiment with NCI-H23 it was 0.401 µM (active); in the experiment on UACC-257, 0.766 µM (active). Moreover, the GI50 was 0.108 µM (active) in the experiment with SK-OV-3; 8.79 µM (inactive) with HOP-92; 0.0767 µM (active) in the experiment on DU-145; 1.48 µM (inactive) with A498; 0.084 µM (active) with EKVX; 0.0445 µM (active) in the experiment with IGROV-1. Moreover, the values for the GI50 with SK-MEL-2 and in the experiment with SR were < 0.0443 µM (active) and < 0.01 µM (active), respectively.
